Laboratory results reported in ChEMBL document CHEMBL3576796, “A Broad Anti-influenza Hybrid Small Molecule That Potently Disrupts the Interaction of Polymerase Acidic Protein-Basic Protein 1 (PA-PB1) Subunits” (J Med Chem, 2015).
In brackets after ≈: the same amount, converted by molar mass. Activity calls are given as the source filed them. The rule behind the calls is not given here.

Columns and labels:
[1] = target: PA/PB1 (Influenza A virus (A/Puerto Rico/8/1934(H1N1)), UniProt P03431+P03433)
[2] = Cytotoxicity against human HEK293T cells assessed as decrease in cell viability by MTT assay; format: cell-based, HEK-293T
Liver microsome = assay: Metabolic stability in human liver microsomes assessed as cytochrome-mediated metabolism after 30 mins by HPLC-MS/MS analysis; format: ADME; conditions: 0.5 h
[3] = Cytotoxicity against MDCK cells assessed as decrease in cell viability by MTT assay; format: cell-based, Canis lupus familiaris; conditions: dog
Influenza A virus [4] = format: functional, organism-based; conditions: A/Puerto Rico/8/1934(H1N1), MDCK, 48 h
Influenza B virus [5] = assay: Antiviral activity against Influenza B virus B/Lee/40 assessed as reduction in plaque formation after 48 hrs by plaque reduction assay; format: functional, organism-based; conditions: B/Lee/1940, 48 h
[6] = Permeability of the compound assessed as membrane drug retention after 18 hrs by PAMPA assay; format: physicochemical; set-up: concentration or dose not given beside the values
Influenza B virus [7] = assay: Antiviral activity against Influenza B virus B/Malaysia/2506/04 assessed as reduction in plaque formation after 48 hrs by plaque reduction assay; format: functional; conditions: B/Malaysia/2506/2004, 48 h
Influenza A virus [8] = format: functional, organism-based; conditions: A/Puerto Rico/8/1934(H1N1), HEK-293T, 50 uM
[9] = Antiviral activity against Influenza A virus A/Wisconsin/67/05 (H3N2) assessed as reduction in plaque formation after 48 hrs by plaque reduction assay; format: functional, Influenza A virus (A/Wisconsin/67/2005(H3N2))
Influenza B virus [10] = assay: Antiviral activity against Influenza B virus B/Bangladesh/333/07 assessed as reduction in plaque formation after 48 hrs by plaque reduction assay; format: functional, organism-based; conditions: B/Bangladesh/333/07, 48 h
Influenza A virus [11] = format: functional, organism-based; conditions: A/Puerto Rico/8/1934(H1N1), HEK-293T, 50 uM; remark: listed apart in the source
[12] = Antiviral activity against Influenza A virus A/Solomon Island/3/06 (H1N1) assessed as reduction in plaque formation after 48 hrs by plaque reduction assay; format: functional, Influenza A virus (A/Solomon Islands/3/2006(H1N1))
[13] = Equilibrium solubility of the compound in phosphate buffer at pH 7.4 after 1 hr; format: physicochemical
Influenza A virus [14] = format: functional, organism-based; conditions: A/Puerto Rico/8/1934(H1N1), HEK-293T, 50 uM; remark: listed apart in the source
Influenza A virus [15] = format: functional, organism-based; conditions: A/Puerto Rico/8/1934(H1N1), HEK-293T, 50 uM; remark: listed apart in the source
[16] = Permeability of the compound assessed as passive diffusion from donor compartment to acceptor compartment after 18 hrs by PAMPA assay; format: physicochemical; conditions: read-out: Peff
Influenza A virus [17] = format: functional, organism-based; conditions: A/Puerto Rico/8/1934(H1N1), MDCK, 48 h; remark: listed apart in the source

Structure (SMILES) | IC50 [1] [µM] | CC50 [2] [µM] | Drug metabolism (Liver microsome) | CC50 [3] [µM] | EC50 (Influenza A virus [4]) [µM] | other results
NC(=O)c1c(NC(=O)c2nc3nc(-c4ccccc4)cc(C(F)(F)F)n3n2)sc2c1CCCC2 | 7.5 | > 250 |  |  |  | 
CC1=CC(c2ccccc2)n2nc(NC(=O)c3ccc(Cl)cc3)nc2N1 (centres undefined) | 95 | > 250 | metabolite_notdetected | > 250 | > 100 | 
Cc1cc(-c2ccccc2)n2nc(C(=O)Nc3sc4c(c3C(N)=O)CCCCC4)nc2n1 | 1.1 | > 250 | metabolite_notdetected | > 250 | 21 | EC50 (Influenza B virus [5]): 24 µM; Activity [6]: 45%; EC50 (Influenza B virus [7]): 17 µM; Activity (Influenza A virus [8]): Active; EC50 [9]: 7 µM; EC50 (Influenza B virus [10]): 11 µM; Activity (Influenza A virus [11]): inactive; EC50 [12]: 23 µM; solubility thermodynamic at 1 h [13]: 13 µg/mL (≈ 29.1 µM); Activity (Influenza A virus [14]): Active; Activity (Influenza A virus [15]): Active; Papp at 18 h [16]: 0.61 ×10⁻⁶ cm/s; EC50 (Influenza A virus [17]): 21 µM
COC(=O)C1=C(N)N(c2cccc(Cl)c2C)C2=C(C(=O)CCC2)C1c1ccc2c(c1)OCO2 (centres undefined) | 30.4 | > 1000 |  |  | 12.2 | 
CC1=CC(c2ccccc2)n2nc(NC(=O)CCc3ccccc3)nc2N1 (centres undefined) | 100 | 223 | metabolite_notdetected | > 250 | > 100 | 
Cc1cc(-c2ccccc2)nc2nc(C(=O)Nc3sc4c(c3C(N)=O)CCCCC4)nn12 | 28 | > 250 | metabolite_notdetected | > 250 | 49 | EC50 (Influenza B virus [5]): 5 µM; Activity [6]: 99%; EC50 (Influenza B virus [7]): 11 µM; EC50 [9]: 14 µM; EC50 (Influenza B virus [10]): 12 µM; EC50 [12]: 16 µM; EC50 (Influenza A virus [17]): 8 µM
CC1=CC(c2ccccc2)n2nc(NC(=O)c3ccc(Oc4ccccc4)cc3)nc2N1 (centres undefined) | 156 | 73 | metabolite_notdetected | > 180 | 59 | 
CCCCc1ccc(C(=O)Nc2nc3n(n2)C(c2ccccc2)C=C(C)N3)cc1 (centres undefined) | 48 | > 250 | metabolite_notdetected | > 250 | 100 | 
COc1ccccc1C(=O)Nc1nc2n(n1)C(c1ccccc1)C=C(C)N2 (centres undefined) | > 200 | 240 | metabolite_notdetected | > 250 | > 100 | 
CC1=CC(c2ccccc2)n2nc(NC(=O)c3ccc(OC(C)C)cc3)nc2N1 (centres undefined) | 75 | > 250 | metabolite_notdetected | > 250 | > 100 | 
CCCOc1ccc(C(=O)Nc2nc3n(n2)C(c2ccccc2)C=C(C)N3)cc1 (centres undefined) | 40 | > 250 | metabolite_notdetected | > 230 | 47 | EC50 (Influenza B virus [5]): 51 µM; Activity [6]: 41%; EC50 (Influenza B virus [7]): 32 µM; EC50 [9]: 37 µM; EC50 (Influenza B virus [10]): 27 µM; EC50 [12]: 27 µM; solubility thermodynamic at 1 h [13]: 13 µg/mL (≈ 33.4 µM); Papp at 18 h [16]: 2.93 ×10⁻⁶ cm/s; EC50 (Influenza A virus [17]): 47 µM
Cc1cc(-c2ccccc2)nc2nc(C(=O)Nc3ccccc3)nn12 | 128 | > 250 | metabolite_notdetected | > 250 | 40 | 
NC(=O)c1ncn([C@@H]2O[C@H](CO)[C@@H](O)[C@H]2O)n1 [RIBAVIRIN] |  | > 250 |  | > 250 |  | 
N#CC(c1ccc(Cl)cc1)c1c(Cl)cc(-n2ncc(=O)[nH]c2=O)cc1Cl (centres undefined) [DICLAZURIL] |  |  |  |  | 31 | 
COc1ccc(C(=O)Nc2nc3nc(-c4ccccc4)cc(C)n3n2)cc1 | 150 | 109 | metabolite_notdetected | > 250 | > 100 | 
CCCCOc1ccc(C(=O)Nc2nc3n(n2)C(c2ccccc2)C=C(C)N3)cc1 (centres undefined) | 37 | > 250 | metabolite_notdetected | > 196 | 100 | 
Nc1ccc(O)c2c1C(=O)c1c(N)ccc(O)c1C2=O | 20.3 | > 250 |  |  | 14.5 | 
Cc1cc(-c2ccccc2)n2nc(NC(=O)c3ccccc3)nc2n1 | > 200 | > 250 | metabolite_notdetected | > 250 | > 100 | 
CC1=CC(c2ccccc2)n2nc(NC(=O)c3ccc(F)cc3)nc2N1 (centres undefined) | 138 | 190 | metabolite_notdetected | > 250 | > 100 | 

Structure (SMILES) | IC50 [1] [µM] | CC50 [2] [µM] | Drug metabolism (Liver microsome) | CC50 [3] [µM] | EC50 (Influenza A virus [4]) [µM] | other results
COc1ccc(C(=O)Nc2nc3n(n2)C(c2ccccc2)C=C(C)N3)cc1 (centres undefined) | 153 | > 250 | metabolite_notdetected | > 240 | > 100 | Activity [6]: 57%; solubility thermodynamic at 1 h [13]: 13 µg/mL (≈ 36 µM); Papp at 18 h [16]: 3.52 ×10⁻⁶ cm/s
COc1cccc(C(=O)Nc2nc3n(n2)C(c2ccccc2)C=C(C)N3)c1 (centres undefined) | 175 | 230 | metabolite_notdetected | > 250 | > 100 | 
CC1=CC(c2ccccc2)n2nc(NC(=O)c3ccc4ccccc4c3)nc2N1 (centres undefined) | > 200 | 154 | metabolite_notdetected | > 115 | 41 | 
CCCOc1ccc(C(=O)Nc2nc3nc(-c4ccccc4)cc(C)n3n2)cc1 | 158 | 52 | metabolite_notdetected | > 247 | > 100 | 
CC1=CC(c2ccccc2)n2nc(NC(=O)c3ccccc3F)nc2N1 (centres undefined) | 185 | > 250 | metabolite_notdetected | > 250 | > 100 | 
COc1ccc(C(=O)Nc2nc3nc(C)cc(-c4ccccc4)n3n2)cc1 | > 200 | 187 | metabolite_notdetected | > 250 | 86 | 
CC1=CC(c2ccccc2)n2nc(NC(=O)c3ccc(-c4ccccc4)cc3)nc2N1 (centres undefined) | > 200 | 155 | metabolite_notdetected | > 193 | 28 | 
CC1=CC(c2ccccc2)n2nc(NC(=O)c3ccc([N+](=O)[O-])cc3)nc2N1 (centres undefined) | 75 | > 250 | metabolite_notdetected | > 250 | > 100 | 
CCCOc1ccc(C(=O)Nc2nc3nc(C)cc(-c4ccccc4)n3n2)cc1 | > 200 | 95 | metabolite_notdetected | > 72 | > 100 | 
CC1=CC(c2ccccc2)n2nc(NC(=O)c3ccccc3)nc2N1 (centres undefined) | 100 | > 250 | metabolite_notdetected | > 250 | 100 | 
NC(=O)c1c(NC(=O)c2cnn3c(C(F)F)cc(-c4ccccc4)nc23)sc2c1CCC2 | 25.4 | > 1000 |  |  |  | 
Cc1cc(-c2ccccc2)nc2nc(NC(=O)c3ccccc3)nn12 | 26 | 196 | metabolite_notdetected | > 250 | 25 | EC50 (Influenza B virus [5]): 25 µM; Activity [6]: 2%; EC50 (Influenza B virus [7]): 36 µM; EC50 [9]: 24 µM; EC50 (Influenza B virus [10]): 34 µM; EC50 [12]: 27 µM; solubility thermodynamic at 1 h [13]: 13 µg/mL (≈ 39.5 µM); Papp at 18 h [16]: 5.49 ×10⁻⁶ cm/s; EC50 (Influenza A virus [17]): 25 µM
O=[N+]([O-])c1ccc(Oc2ccc(-n3cc(CO)nn3)cc2)c2nonc12 | 35 | 40 |  |  | 1 | 
CCOc1ccc(C(=O)Nc2nc3n(n2)C(c2ccccc2)C=C(C)N3)cc1 (centres undefined) | 139 | 237 | metabolite_notdetected | > 250 | 100 | 
CSCC[C@H](N)C(=O)N[C@@H](CC(=O)O)C(=O)N[C@H](C(=O)N[C@@H](CC(N)=O)C(=O)N1CCC[C@H]1C(=O)N[C@H](C(=O)N[C@@H](CC(C)C)C(=O)N[C@@H](CC(C)C)C(=O)N[C@@H](Cc1ccccc1)C(=O)N[C@@H](CC(C)C)C(=O)N[C@@H](CCCCN)C(=O)N[C@H](C(=O)N1CCC[C@H]1C(=O)N[C@@H](C)C(=O)N[C@@H](CCC(N)=O)C(=O)O)C(C)C)[C@@H](C)O)C(C)C |  | > 100 |  |  |  | 
Cc1cc(-c2ccccc2)n2nc(C(=O)Nc3ccccc3)nc2n1 | 160 | 110 | metabolite_notdetected | > 250 | 42 | 
CCc1oc2ccccc2c1C(=O)c1cc(Br)c(O)c(Br)c1 [BENZBROMARONE] |  |  |  |  | 39 | 
CC1=CC(c2ccccc2)n2nc(NC(=O)c3cccc(F)c3)nc2N1 (centres undefined) | 156 | 220 | metabolite_notdetected | > 250 | > 100 | 
